Data set [1] has as its system inflammation of the ear in the mouse. The data set can be described thus: Local anti-inflammatory activity, croton oil ear inflammation (method derived from Tonelli). In kind it is in vivo. The note with it: for Anti-inflammatory activity EC50: mouse ear, croton oil, concentration giving 50% reduction in inflammation vs controls; for Anti-inflammatory activity: Activity/ref. 21 act. hydro: relative to hydrocortisone-21-acetate = 1. The method, then:
I.1. Local anti-inflammatory activity
This study was carried out in accordance with a method derived from that of Tonelli (Endocrinology, Vol. 77, page 625, 1965).
The test consists of causing inflammation of the ear in the mouse using a croton oil-based irritating solution.
The addition of a local anti-inflammatory substance to this solution leads to a reduced inflammation action compared with that of the controls, i.e. treated with the irritating solution only.
The results of the study are expressed in EC50, which is the p/v % concentration of the dissolved product able to bring about a 50% reduction in the inflammation compared with that caused in the controls.

Data set [2] in a line: Dissociation ratio R local anti-inflammatory activity / systemic activity. The format is in vivo, mouse (ear inflammation) and rat (thymus). The note with it: lower value = greater dissociation of activities. As for the experimental part: The results obtained by this study make it possible to calculate the activity ratio:
local anti-inflammatory activity
The value of this ratio indicates the dissociation of the activities and is inversely proportional to the size of the dissociation, i.e. the lower this value, the greater the dissociation.
This value was calculated on the basis of the expression: [formula]

The next data set has as its system thymus weight. The data set can be described thus: Systemic (thymolytic) activity, thymus weight reduction after oral administration. In kind it is in vivo, rat (Wistar). As for the experimental part: (§1) Determination of systemic activity side effects
(§2) These effects were evaluated by means of their thymolytic activity.
(§3) The repeated administration of systemic activity products leads to a weakening of the defence systems of the organism. More especially in young animals, this leads to a reduction in the weight of two organs of the reticuloendothelial system, namely the spleen and the thymus, the latter being the most sensitive to this effect.
(§4) This activity was determined by means of a study of the activity of products on the weight reduction of the thymus of animals.
(§5) The product to be studied, suspended in 5% p/v gum arabic were orally administered daily for four consecutive days to young rats of the Wistar strain. Under the same conditions, a control batch of animals received an identical volume of the excipient.
(§6) 96 hours after the first administration, the animals were killed and their thymus removed and immediately weighed.
(§7) The results of the study are expressed in ED50, which corresponds to the daily dose in milligrams able to bring about a 50% thymus weight reduction for 1 kilogram animal weight, compared with the controls (mg/kg^-1 /day^-1).

Assay in data set [3]: as above
The note with it: rat. The format is in vivo, rat (Wistar). The method, then: as §1, §2, §3, §4, §5, §6, §7

The next data set relates to erythema. The note with it: reported by O. J. Lorenzetti; cited from earlier work.
A further data set deals with granuloma. The note with it: according to N. Bodor; cited from earlier work.
The mark [4] stands for this setting: relative to hydrocortisone-21-acetate = 1.
Where [5] appears, read: young Wistar rats, oral, daily for four consecutive days, 50% thymus weight reduction vs controls, read-out: Systemic activity ED50.

Where two headings read alike, the source gives them in different places. Bounds are passed on as bounds.

The ED50 is the midpoint of the dose-response relation.

Consider `CCCC(=O)O[C@]1(C(=O)CSC(=O)CC)CC[C@H]2[C@@H]3CCC4=CC(=O)CC[C@]4(C)[C@H]3[C@@H](O)C[C@@]21C` [Example 2, 3,20-dione-11β-hydroxypregn-4-ene-21-thiopropionate-17-butyrate], for which, in data set [1], the “Anti-inflammatory activity EC50” value turned out to be 0.021 % p/v and the “Anti-inflammatory activity: Activity/ref. 21 act. hydro” value is listed as 14.3. Moreover, the “R (local anti-inflammatory activity / systemic activity)” value in data set [2] is 0.14. Besides, the “Systemic activity: Activity/ref. 21 act. hydro” value in the data set with thymus weight (rat, in vivo, 5760 min) is listed as below 0.0096. Further, the ED50 at 96 h in data set [3] (in vivo, po) was above 1450 mg/kg.

In the case of `CCCCC(=O)O[C@]1(C(=O)CSC(C)=O)CC[C@H]2[C@@H]3C[C@H](C)C4=CC(=O)C=C[C@]4(C)[C@H]3[C@@H](O)C[C@@]21C` [6-α-methylprednisolone-21-thioacetate-17-valerate], in data set [1], the “Anti-inflammatory activity EC50” value is 0.5 % p/v and the “Anti-inflammatory activity: Activity/ref. 21 act. hydro” value is recorded as 0.6. In data set [2], the “R (local anti-inflammatory activity / systemic activity)” value stood at 116.3. Also, the “Systemic activity: Activity/ref. 21 act. hydro” value in the data set on thymus weight (rat, in vivo, 5760 min) was 0.325. In data set [3] (in vivo, po), this compound had an ED50 at 96 h of 43 mg/kg.

Turning to `CC(=O)O[C@]1(C(=O)CSC(=O)CC(C)(C)C)[C@H](C)C[C@H]2[C@@H]3CCC4=CC(=O)C=C[C@]4(C)[C@@]3(F)[C@@H](O)C[C@@]21C` [dexamethasone-21-thiotertiobutylacetate-17-acetate], in data set [1], the “Anti-inflammatory activity EC50” value stood at 0.0092 % p/v and the “Anti-inflammatory activity: Activity/ref. 21 act. hydro” value worked out at 32.6. The “R (local anti-inflammatory activity / systemic activity)” value in data set [2] is recorded as 30.7. In addition, the “Systemic activity: Activity/ref. 21 act. hydro” value in the data set with thymus weight (rat, in vivo, 5760 min) is on record as 4.67. In addition, in data set [3] (in vivo, po), the 50% effect level (ED50 at 96 h) was put at a dose of 3 mg/kg.

Turning to `CCCC(=O)O[C@]1(C(=O)CSC(C)=O)CC[C@H]2[C@@H]3CCC4=CC(=O)CC[C@]4(C)[C@H]3[C@@H](O)C[C@@]21C` [Example 1, 3,20-dione-11β-hydroxypregn-4-ene-21-thioacetate-17-butyrate], in data set [1], the “Anti-inflammatory activity EC50” value came to 0.0082 % p/v and the “Anti-inflammatory activity: Activity/ref. 21 act. hydro” value was found to be 36.6. Further, the “R (local anti-inflammatory activity / systemic activity)” value in data set [2] turned out to be 0.23. For the same compound, the “Systemic activity: Activity/ref. 21 act. hydro” value with thymus weight (rat, in vivo, 5760 min) turned out to be 0.04. For the same compound, in the data set with thymus weight (rat, in vivo, po, 5760 min), the “systemic activity, times lower than that of prednisolone-21-thioacetate-17-valerate” value worked out at 6 times. In data set [3] (in vivo, po), the ED50 at 96 h was 350 mg/kg.

As to `CCC(=O)SCC(=O)[C@@]1(OC(C)=O)[C@@H](C)C[C@H]2[C@@H]3CCC4=CC(=O)C=C[C@]4(C)[C@@]3(F)[C@@H](O)C[C@@]21C` [betamethasone-21-thiopropionate-17-acetate], in data set [1], the “Anti-inflammatory activity EC50” value is recorded as 0.012 % p/v and the “Anti-inflammatory activity: Activity/ref. 21 act. hydro” value is listed as 25.0. The “R (local anti-inflammatory activity / systemic activity)” value in data set [2] is on record as 50.0. For the same compound, in the data set with thymus weight (rat, in vivo, 5760 min), the “Systemic activity: Activity/ref. 21 act. hydro” value stood at 5.83. This compound also gave an ED50 at 96 h in data set [3] (in vivo, po) of 2.4 mg/kg.

For `CCCCC(=O)O[C@]1(C(=O)COC(C)=O)CC[C@H]2[C@@H]3CCC4=CC(=O)C=C[C@]4(C)[C@H]3[C@@H](O)C[C@@]21C` [Prednisolone-21-acetate-17-valerate, prednisolone-21-acetate-17-valerate], in data set [1], the “Anti-inflammatory activity EC50” value was 0.0018 % p/v and the “Anti-inflammatory activity: Activity/ref. 21 act. hydro” value is listed as 167. Further, in data set [2], the “R (local anti-inflammatory activity / systemic activity)” value amounted to 2.0. In addition, the “Systemic activity: Activity/ref. 21 act. hydro” value in the data set with thymus weight (rat, in vivo, 5760 min) stood at 1.60. The compound also displayed an ED50 at 96 h in data set [3] (in vivo, po) of 9 mg/kg.

Turning to `CCC(=O)O[C@]1(C(=O)CSC(=O)CC)[C@@H](C)C[C@H]2[C@@H]3CCC4=CC(=O)C=C[C@]4(C)[C@@]3(F)[C@@H](O)C[C@@]21C` [betamethasone-21-thiopropionate-17-propionate], in data set [1], the “Anti-inflammatory activity EC50” value was determined as 0.0013 % p/v and the “Anti-inflammatory activity: Activity/ref. 21 act. hydro” value stood at 231. Besides, the “R (local anti-inflammatory activity / systemic activity)” value in data set [2] was found to be 4.33. In the data set on thymus weight (rat, in vivo, 5760 min), the “Systemic activity: Activity/ref. 21 act. hydro” value stood at 4.66. The same compound returned a 50% effective dose (ED50) at 96 h in data set [3] (in vivo, po) of 3 mg/kg.

Turning to `CCCC(=O)O[C@]1(C(=O)CO)CC[C@H]2[C@@H]3CCC4=CC(=O)CC[C@]4(C)[C@H]3[C@@H](O)C[C@@]21C` [hydrocortisone-17-butyrate], the “activity in the erythema test compared with the vasoconstriction test” value in the data set with erythema is on record as “good similarity of activity compared with the vasoconstriction test”. Moreover, the “activity in the granuloma test” value with granuloma is “only has a limited activity in the granuloma test”.

For `CC(C)(C)C(=O)SCC(=O)[C@@]1(O)CC[C@H]2[C@@H]3CCC4=CC(=O)CC[C@]4(C)[C@H]3[C@@H](O)C[C@@]21C` [Hydrocortisone-21-thiopivalate, hydrocortisone-21-thiopivalate], in data set [1], the “Anti-inflammatory activity EC50” value was 2.5 % p/v and the “Anti-inflammatory activity: Activity/ref. 21 act. hydro” value is on record as 0.12. Further, the “R (local anti-inflammatory activity / systemic activity)” value in data set [2] is 6.90. Moreover, the “Systemic activity: Activity/ref. 21 act. hydro” value in the data set with thymus weight (setting [4]) was determined as 0.0038. The ED50 at 96 h in data set [3] (in vivo, young Wistar rats, oral, daily for four consecutive days, 50% thymus weight reduction vs controls, read-out: Systemic activity ED50) was 3600 mg/kg.

For `CCC(=O)O[C@]1(C(=O)CSC(C)=O)[C@@H](C)C[C@H]2[C@@H]3CCC4=CC(=O)C=C[C@]4(C)[C@@]3(F)[C@@H](O)C[C@@]21C` [betamethasone-21-thioacetate-17-propionate], in data set [1], the “Anti-inflammatory activity EC50” value was found to be 0.010 % p/v and the “Anti-inflammatory activity: Activity/ref. 21 act. hydro” value worked out at 30.0. Besides, the “R (local anti-inflammatory activity / systemic activity)” value in data set [2] was 40.0. Besides, the “Systemic activity: Activity/ref. 21 act. hydro” value with thymus weight (rat, in vivo, 5760 min) came to 5.60. The compound further registered an ED50 at 96 h in data set [3] (in vivo, po) of 2.5 mg/kg.

For `CCCC(=O)O[C@]1(C(=O)COC(=O)CC)CC[C@H]2[C@@H]3CCC4=CC(=O)CC[C@]4(C)[C@H]3[C@@H](O)C[C@@]21C` [Hydrocortisone-21-propionate-17-butyrate, hydrocortisone-21-propionate-17-butyrate], in data set [1], the “Anti-inflammatory activity EC50” value is on record as 0.0047 % p/v and the “Anti-inflammatory activity: Activity/ref. 21 act. hydro” value is listed as 63.8. In addition, the “R (local anti-inflammatory activity / systemic activity)” value in data set [2] worked out at 6.52. Also, the “Systemic activity: Activity/ref. 21 act. hydro” value in the data set on thymus weight (setting [4]) is reported as 1.95. Further, the ED50 at 96 h in data set [3] (setting [5]) was found to be 7.2 mg/kg.

Take `CC(=O)OCC(=O)[C@@]1(O)CC[C@H]2[C@@H]3CCC4=CC(=O)CC[C@]4(C)[C@H]3[C@@H](O)C[C@@]21C` [hydrocortisone-21-acetate]: in data set [1], the “Anti-inflammatory activity EC50” value is reported as 0.30 % p/v and the “Anti-inflammatory activity: Activity/ref. 21 act. hydro” value is on record as 1. Further, in data set [2], the “R (local anti-inflammatory activity / systemic activity)” value was 214. For the same compound, the “Systemic activity: Activity/ref. 21 act. hydro” value in the data set with thymus weight (setting [4]) is recorded as 1. Besides, the ED50 at 96 h in data set [3] (setting [5]) came to 14 mg/kg.

For the compound `CCC(=O)O[C@]1(C(=O)CSC(=O)CC)[C@@H](C)C[C@H]2[C@@H]3CCC4=CC(=O)C=C[C@]4(C)[C@@]3(Cl)[C@@H](O)C[C@@]21C` [beclomethasone-21-thiopropionate-17-propionate], in data set [1], the “Anti-inflammatory activity EC50” value came out at 0.0175 % p/v and the “Anti-inflammatory activity: Activity/ref. 21 act. hydro” value is given as 17.1. Further, the “R (local anti-inflammatory activity / systemic activity)” value in data set [2] turned out to be 9.21. The “Systemic activity: Activity/ref. 21 act. hydro” value in the data set with thymus weight (rat, in vivo, 5760 min) is 0.74. Further, the median effective dose (ED50) at 96 h in data set [3] (in vivo, po) was determined as 19 mg/kg.

For `CCCCC(=O)O[C@]1(C(=O)CSC(C)=O)CC[C@H]2[C@@H]3CCC4=CC(=O)C=C[C@]4(C)[C@H]3[C@@H](O)C[C@@]21C` [Prednisolone-21-thioacetate-17-valerate], in data set [1], the “Anti-inflammatory activity EC50” value worked out at 0.008 % p/v and the “Anti-inflammatory activity: Activity/ref. 21 act. hydro” value amounted to 37.5. Also, the “R (local anti-inflammatory activity / systemic activity)” value in data set [2] is 1.38. The “Systemic activity: Activity/ref. 21 act. hydro” value in the data set on thymus weight (rat, in vivo, 5760 min) was 0.24. Besides, the ED50 at 96 h in data set [3] (in vivo, po) came out at 58 mg/kg.

These data come from patent publication US5021408A, “Hydrocortisone-17-oxo-21-thioesters, their preparation and their uses as medicaments” (Jouveinal S.A., priority 1983, dated 1991).
